Measurements as given in US20250002506A1, “IMPROVED PROCESS FOR THE PREPARATION OF LURBINECTEDIN AND ITS MORPHS THEREOF” (RK Pharma Inc., priority 2021, published 2025).

Key:
[1] = Chemical stability under long term and accelerated storage conditions; assay type: physicochemical
[2] = Stability study: storage in a sealed reagent bottle at -20° C for three months (description, water content, HPLC purity, XRPD); assay type: physicochemical; design: HPLC impurity at RRT 0.07 / HPLC impurity at RRT 0.20 / HPLC impurity at RRT 0.85 / HPLC impurity at RRT 0.98 / HPLC impurity at RRT 1.02 / HPLC impurity at RRT 1.07 / HPLC impurity at RRT 1.17 / HPLC impurity at RRT 1.23 / HPLC impurity at RRT 1.31 / HPLC impurity at RRT 1.38 / HPLC impurity at RRT 1.41: unit not given here
Experimental: An appropriate amount of the sample of the amorphous as well as RK-1 polymorphic form of Lurbinectedin obtained in examples 5 to 9 was placed in a reagent bottle at-20° C. under a sealed condition for the period of three months to perform a stability test. X-ray powder diffraction pattern, HPLC purity as well as DSC Chromatogram of amorphous as well as RK-1 polymorphic form of Lurbinectedin was evaluated again after storing for period of 3 months. Result of the stability study of both amorphous (Obtained in Example 5) as well as RK-1 polymorphic form of Lurbinectedin (Obtained in Example 6) has been tabulated in Tables 1-2 given below. […] Characteristic peaks in the XRPD pattern and DSC chromatogram of RK-1 polymorphic form of Lurbinectedin obtained initially as well as after storing for the period of three months have been tabulated in Table 3 given below.

[3] = at 3 months (A/3M), -20° C, sealed

| SMILES | HPLC impurity at RRT 0.07 [2, 3] | HPLC impurity at RRT 0.20 [2, 3] | HPLC impurity at RRT 0.85 [2, 3] | HPLC impurity at RRT 0.98 [2, 3] | HPLC impurity at RRT 1.02 [2, 3] | HPLC impurity at RRT 1.07 [2, 3] | HPLC impurity at RRT 1.31 [2, 3] | HPLC impurity at RRT 1.38 [2, 3] | HPLC impurity at RRT 1.41 [2, 3] | HPLC purity, LRBN [2, 3] | Description ([2]; at 3 months, -20° C, sealed) | Water content ([2]; at 3 months, -20° C, sealed) | Description ([2]; initial) | HPLC impurity at RRT 0.20 ([2]; initial) | HPLC impurity at RRT 0.98 ([2]; initial) | HPLC impurity at RRT 1.07 ([2]; initial) | HPLC impurity at RRT 1.17 ([2]; initial) | HPLC impurity at RRT 1.23 ([2]; initial) | HPLC impurity at RRT 1.31 ([2]; initial) | HPLC purity, LRBN ([2]; initial) | also measured |
| --- | --- | --- | --- | --- | --- | --- | --- | --- | --- | --- | --- | --- | --- | --- | --- | --- | --- | --- | --- | --- | --- |
| COc1ccc2[nH]c3c(c2c1)CCN[C@]31CS[C@@H]2c3c(OC(C)=O)c(C)c4c(c3[C@H](COC1=O)N1[C@@H]2[C@H]2c3c(cc(C)c(OC)c3O)C[C@@H]([C@@H]1O)N2C)OCO4 [Pure Lurbinectedin, Lurbinectedin] | – | – | – | – | – | – | – | – | – | – | – | – | – | – | – | – | – | – | – | – | Period for which chemically stable [1]: about 6 months |
| COc1ccc2[nH]c3c(c2c1)CCN[C@]31CS[C@@H]2c3c(OC(C)=O)c(C)c4c(c3[C@H](COC1=O)N1[C@@H]2[C@H]2c3c(cc(C)c(OC)c3O)C[C@@H]([C@@H]1O)N2C)OCO4 [Amorphous form of Lurbinectedin, Lurbinectedin] | 0.06 | 0.02 | 0.01 | 0.03 | 0.05 | 0.02 | 0.02 | 0.01 | 0.01 | 99.77% | Off white | 9.91% | Off white | 0.02 | 0.03 | 0.02 | 0.04 | 0.03 | 0.02 | 99.81% | Water content ([2]; initial): 9.67%; Stability on storage (XRPD pattern after three months same as obtained initially) ([2]; -20° C, sealed): stable on storage |
| COc1ccc2[nH]c3c(c2c1)CCN[C@]31CS[C@@H]2c3c(OC(C)=O)c(C)c4c(c3[C@H](COC1=O)N1[C@@H]2[C@H]2c3c(cc(C)c(OC)c3O)C[C@@H]([C@@H]1O)N2C)OCO4 [polymorphic form RK-1 of Lurbinectedin, Lurbinectedin] | 0.06 | 0.02 | 0.01 | 0.03 | 0.05 | 0.02 | 0.02 | 0.01 | 0.01 | 99.77% | Off white | 10.1% | Off white | 0.03 | 0.03 | 0.02 | 0.04 | 0.03 | 0.02 | 99.86% | Description ([2]; after 1 month, -20° C, sealed): Off white powder; Description ([2]; at 3 months, -20° C, sealed, listed as RK-1 polymorphic form of Lurbinectedin): Off white powder; Water content ([2]; initial): 9.69%; Description ([2]; initial, listed as RK-1 polymorphic form of Lurbinectedin): Off white powder; Stability on storage (XRPD pattern after three months same as obtained initially) ([2]; -20° C, sealed): stable on storage |
